Experimental data published in patent publication US20080299140A1, “Immunogenic Composition and Peptide Sequences for Prevention and Treatment of an Hsv Condition” (priority 2002, published 2008).

How the values were obtained:
T-cells = assay: Cytokine analysis (IL-2, IL-4, IFN-γ sandwich ELISA); format: cell-based, mice
Procedure: T-cells were stimulated with either immunizing peptides (10 μg/ml), the irrelevant control peptide (10 μg/ml), UV-inactivated HSV-1 (MOI=3), or with ConA (0.5 μg/ml) as a positive control. Culture media were harvested 48 h (for IL-2) or 96 h (for IL-4 and IFN-γ) later and analyzed by specific sandwich ELISA following the manufacturer's instructions (PharMingen, San Diego, Calif.).

[1] = system: lymphocytes obtained from HSV-1 infected H-2^d mice; assay: HSV-primed T-cell responses to gD peptides in HSV-1 infected mice; format: cell-based; details: HSV-1 infected H-2^d mice
Procedure: Twelve days after the second immunization, spleen and inguinal lymph nodes (LN) were removed and placed into ice-cold serum free HL-1 medium supplemented with 15 mM HEPES, 5×10^−5 M β-mercaptoethanol, 2 mM glutamine, 50 U of penicillin and 50 μg of streptomycin (GIBCO-BRL, Grand Island, N.Y.) (complete medium, CM). The cells were cultured in 96-well plates at 5×10^5 cells/well in CM, with recall or control peptide at 30, 10, 3, 1, or 0.3 μg/ml concentration, as previously described in (BenMohamed et al., 2000 and 2002). The cell suspensions were incubated for 72 h at 37° C. in 5% CO2. One μCi (micro-curie) of (^3H)-thymidine (Dupont MEN, Boston, Mass.) was added to each well during the last 16 h of culture. The incorporated radioactivity was determined by harvesting cells onto glass fiber filters and counted on a Matrix 96 direct ionization-counter (Packard Instruments, Meriden, Conn.). Results were expressed as the mean cpm of cell-associated (^3H)-thymidine recovered from wells containing Ag minus the mean cpm of cell-associated (^3H)-thymidine recovered from wells without Ag (A cpm) (average of triplicate). The Stimulation Index (SI) was calculated as the mean cpm of cell-associated (^3H)-thymidine recovered from wells containing Ag divided by the mean cpm of cell-associated (^3H)-thymidine recovered from wells without Ag (average of triplicate). For all experiments the irrelevant control peptide gB141-165 and the T-cell mitogen Concanavalin A (ConA) (Sigma, St. Louis, Mo.) were used as negative and positive controls, respectively. Proliferation results were confirmed by repeating each experiment twice. A T-cell proliferative response was considered positive when A cpm>1000 and SI>2.
To define the fine specificity of broadly reactive T-cells associated with viral immunity and to explore immunodominance in the context of HSV infection, proliferation of lymphocytes obtained from twenty HSV-1 infected H-2^d mice were evaluated using the twelve gD peptides as Ag (FIG. 6). […] Despite a difference between individual mice, a unique array of T-cell responses was identified for each of the twenty infected mice analyzed.

[2] = system: HLA-DR and HLA-DP molecules; assay: MHC class II binding assays, panel of twelve HLA class II molecules (number of alleles bound); details: number of the twelve class II MHC alleles bound; title: Threshold 600 nM/5 alleles
[3] = T cells treated with Abs to CD4
[4] = T cells treated with Abs to CD8
[5] = splenocyte derived T cells, no Abs, average of triplicates (+/- SD)

SMILES: CC[C@H](C)[C@H](N)C(=O)N[C@@H](CS)C(=O)NCC(=O)N[C@H](C(=O)N[C@H](C(=O)N[C@@H](Cc1ccc(O)cc1)C(=O)N[C@@H](Cc1c[nH]c2ccccc12)C(=O)N[C@@H](CCSC)C(=O)N[C@@H](CCCNC(=N)N)C(=O)N[C@@H](CCCNC(=N)N)C(=O)N[C@@H](Cc1c[nH]cn1)C(=O)N[C@H](C(=O)N[C@@H](CCC(N)=O)C(=O)N[C@@H](CCCCN)C(=O)N[C@@H](C)C(=O)N1CCC[C@H]1C(=O)N[C@@H](CCCCN)C(=O)N[C@@H](CCCNC(=N)N)C(=O)N[C@H](C(=O)N[C@@H](CCCNC(=N)N)C(=O)N[C@@H](CC(C)C)C(=O)N1CCC[C@H]1C(=O)N[C@@H](Cc1c[nH]cn1)C(=O)N[C@H](C(=O)N[C@@H](CCCNC(=N)N)C(=O)N[C@@H](CCC(=O)O)C(=O)N[C@@H](CC(=O)O)C(=O)O)[C@@H](C)CC)[C@@H](C)CC)[C@@H](C)O)C(C)C)[C@@H](C)CC [HSV 39]
- IFNγ, Anti-CD4 (T-cells; [3]): 4 (+/−1) ng/ml
- IL-2, Anti-CD4 (T-cells; [3]): 36 (+/−1) pg/ml
- IFNγ, Anti-CD8 (T-cells; [4]): 54 (+/−1) ng/ml
- IL-2, Anti-CD8 (T-cells; [4]): 13 (+/−4) pg/ml
- IFNγ, None (T-cells; [5]): 179 (+/5−) ng/ml
- IL-2, None (T-cells; [5]): 135 (+/6−) pg/ml
- immunodominance of epitopes in HSV-primed T-cell responses [1]: immunodominant epitopes
- Range [2]: 6
